Test results published in ChEMBL document CHEMBL4811301, “Synthesis and biological evaluation of 3-styrylchromone derivatives as selective monoamine oxidase B inhibitors” (Bioorg Med Chem, 2021).

Key:
[1] = target: T1, Amine oxidase [flavin-containing] A (Homo sapiens, UniProt P21397); assay: Inhibition of human recombinant MAO-A […] as incubated for 20 mins measuring increase in emission signal at 310 nm multimode plate reader assay
T1 sequence (P21397 whole entry): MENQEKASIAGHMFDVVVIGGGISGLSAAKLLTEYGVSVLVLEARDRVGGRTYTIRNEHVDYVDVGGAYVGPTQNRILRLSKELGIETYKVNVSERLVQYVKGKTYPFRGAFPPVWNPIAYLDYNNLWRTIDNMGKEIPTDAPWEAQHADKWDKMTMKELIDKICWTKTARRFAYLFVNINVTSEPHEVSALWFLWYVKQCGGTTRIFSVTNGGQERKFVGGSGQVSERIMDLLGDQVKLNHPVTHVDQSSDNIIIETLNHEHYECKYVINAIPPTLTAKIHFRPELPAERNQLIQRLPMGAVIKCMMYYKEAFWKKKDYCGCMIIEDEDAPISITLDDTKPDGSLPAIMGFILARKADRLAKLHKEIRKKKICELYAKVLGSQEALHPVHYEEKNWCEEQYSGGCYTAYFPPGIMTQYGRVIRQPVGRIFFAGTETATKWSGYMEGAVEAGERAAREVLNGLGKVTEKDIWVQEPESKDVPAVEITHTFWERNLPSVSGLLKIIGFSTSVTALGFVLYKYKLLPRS

[2] = target: T2, Amine oxidase [flavin-containing] B (Homo sapiens, UniProt P27338); assay: Inhibition of human recombinant MAO-B using kynuramine as substrate incubated for 20 mins measuring increase in emission signal at 400 nm multimode plate reader assay
T2 sequence (P27338 whole entry): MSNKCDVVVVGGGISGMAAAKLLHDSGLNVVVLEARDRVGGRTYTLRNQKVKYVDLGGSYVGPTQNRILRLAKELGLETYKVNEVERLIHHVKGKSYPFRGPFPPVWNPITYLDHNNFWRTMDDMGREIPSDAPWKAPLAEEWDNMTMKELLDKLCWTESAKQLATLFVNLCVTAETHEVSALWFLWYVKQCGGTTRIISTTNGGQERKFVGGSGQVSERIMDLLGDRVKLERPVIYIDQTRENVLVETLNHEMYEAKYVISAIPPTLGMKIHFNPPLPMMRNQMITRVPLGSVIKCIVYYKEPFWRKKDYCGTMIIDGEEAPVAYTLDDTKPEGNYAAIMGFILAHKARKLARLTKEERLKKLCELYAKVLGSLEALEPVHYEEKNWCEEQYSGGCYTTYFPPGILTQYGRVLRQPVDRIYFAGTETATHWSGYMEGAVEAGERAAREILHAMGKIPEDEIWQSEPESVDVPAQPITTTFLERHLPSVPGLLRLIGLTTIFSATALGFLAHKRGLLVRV

Homo sapiens = species on record: Homo sapiens; assay: Selectivity index, ratio of IC50 for recombinant human MAO-A to IC50 for recombinant human MAO-B
[3] = target: T2, Amine oxidase [flavin-containing] B; assay: Mixed type inhibition of human recombinant MAO-B by Lineweaver-Burk plot analysis

| Structure (SMILES) | IC50 [1] [µM] | IC50 [2] [µM] | Selectivity Index (Homo sapiens) | Ki [3] [µM] |
| --- | --- | --- | --- | --- |
| COc1ccc2c(=O)c(/C=C/c3ccc(F)cc3)coc2c1 | 0.014 | 0.0031 | – | – |
| COc1ccc2c(=O)c(/C=C/c3cc(OC)c(OC)c(OC)c3)coc2c1 | 7.3 | 0.021 | 348 | – |
| COc1ccc(/C=C/c2coc3cc(OC)ccc3c2=O)cc1 | 0.069 | 0.0068 | 10 | – |
| COc1cc(/C=C/c2coc3ccccc3c2=O)cc(OC)c1OC | 67 | 0.23 | 291 | – |
| COc1ccc2c(=O)c(/C=C/c3ccc(N(C)C)cc3)coc2c1 | 0.49 | 0.0061 | 80 | – |
| COc1ccc2occ(/C=C/c3ccc(OC)c(OC)c3)c(=O)c2c1 | 61 | 0.8 | 76 | – |
| COc1ccc2c(=O)c(/C=C/c3ccc(OC)c(OC)c3)coc2c1 | 19 | 0.033 | 576 | – |
| O=c1c(/C=C/c2ccc(O)cc2)coc2ccccc12 | 2.6 | 0.037 | 70 | – |
| COc1ccc(/C=C/c2coc3ccccc3c2=O)cc1OC | 33 | 0.16 | 206 | – |
| O=c1c(/C=C/c2ccc(Cl)cc2)coc2ccccc12 | 0.39 | 0.0059 | 66 | – |
| COc1ccc2occ(/C=C/c3cc(OC)c(OC)c(OC)c3)c(=O)c2c1 | > 100 | 2.5 | > 40 | – |
| CN(C)c1ccc(/C=C/c2coc3ccccc3c2=O)cc1 | 42 | 0.048 | 875 | – |
| O=c1c(/C=C/c2ccc(F)cc2)coc2ccccc12 | 0.62 | 0.0086 | 72 | – |

Other lines, results leading:

| IC50 [1] [µM] | IC50 [2] [µM] | Selectivity Index (Homo sapiens) | Ki [3] [µM] | Structure (SMILES) |
| --- | --- | --- | --- | --- |
| 2.5 | 0.075 | 33 | – | COc1ccc2occ(/C=C/c3ccccc3)c(=O)c2c1 |
| 59 | 0.23 | 257 | – | COc1ccc2occ(/C=C/c3ccc(N(C)C)cc3)c(=O)c2c1 |
| 35 | 0.15 | 233 | – | COc1ccc(/C=C/c2coc3ccc(OC)cc3c2=O)cc1 |
| > 100 | 0.029 | > 3400 | – | COc1ccc(/C=C/c2coc3ccccc3c2=O)cc1 |
| 0.025 | 0.0022 | 11 | 0.0015 | COc1ccc2c(=O)c(/C=C/c3ccc(Cl)cc3)coc2c1 |
| 0.022 | 0.047 | – | – | COc1ccc2c(=O)c(/C=C/c3ccc(O)cc3)coc2c1 |
| 8.7 | 0.33 | – | – | COc1ccc2occ(/C=C/c3ccc(O)cc3)c(=O)c2c1 |
| 4.1 | 0.028 | 146 | – | COc1ccc2occ(/C=C/c3ccc(Cl)cc3)c(=O)c2c1 |
| > 100 | 0.027 | > 3700 | 0.018 | O=c1c(/C=C/c2ccccc2)coc2ccccc12 |
| 0.12 | 0.016 | 8 | – | COc1ccc2c(=O)c(/C=C/c3ccccc3)coc2c1 |
| 0.38 | 0.034 | 11 | – | COc1ccc2occ(/C=C/c3ccc(F)cc3)c(=O)c2c1 |
